Ki data for 24 compounds are collected here from patent US9365562B2, “1,3 substituted azetidine PDE10 inhibitors” (Merck Sharp & Dohme Corp., priority 2011, dated 2016).

pKi: −log10 of the molar value.

The test addresses human PDE10A2 (Homo sapiens (Human), UniProt Q9Y233). In words: PDE10 fluorescence polarization (IMAP FP) inhibition assay. It counts as biochemical. The note with it: apparent inhibition constant, FAM-labeled cAMP substrate 50 nM, room temperature. The method, then:
The activity of the compounds in accordance with the present invention as PDE10 inhibitors may be readily determined without undue experimentation using a fluorescence polarization (FP) methodology that is well known in the art (Huang, W., et al., J. Biomol Screen, 2002, 7: 215).
In a typical experiment the PDE10 inhibitory activity of the compounds of the present invention was determined in accordance with the following experimental method. PDE10A2 was amplified from human fetal brain cDNA (Clontech, Mountain View, Calif.) using a forward primer corresponding to nucleotides 56-77 of human PDE10A2 (Accession No. AF127480, Genbank Identifier 4894716), containing a Kozak consensus sequence, and a reverse primer corresponding to nucleotides 2406-2413 of human PDE10A2 (Accession No. AF127480, Genbank Identifier 4894716). Amplification with Easy-A polymerase (Stratagene, La Jolla, Calif.) was 95° C. for 2 minutes followed by thirty three cycles of 95° C. for 40 seconds, 55° C. for 30 seconds, and 72° C. for 2 minutes 48 seconds. Final extension was 72° C. for 7 minutes. The PCR product was TA cloned into pcDNA3.2-TOPO (Invitrogen, Carlsbad, Calif.) according to standard protocol. AD293 cells with 70-80% confluency were transiently transfected with human PDE10A2/pcDNA3.2-TOPO using Lipofectamine 2000 according to manufacturer specifications (Invitrogen, Carlsbad, Calif.). Cells were harvested 48 hours post-transfection and lysed by sonication (setting 3, 10×5 sec pulses) in a buffer containing 20 mM HEPES, 1 mM EDTA and protease inhibitor cocktail (Roche). Lysate was collected by centrifugation at 75,000×g for 20 minutes. Supernatant containing the cytoplasmic fraction was used for evaluation of PDE10A2 activity. The fluorescence polarization assay for cyclic nucleotide phosphodiesterases was performed using an IMAP® FP kit supplied by Molecular Devices, Sunnyvale, Calif. (product # R8139). IMAP® technology has been applied previously to phosphodiesterase assays (Huang, W., et al., J. Biomol Screen, 2002, 7: 215). Assays were performed at room temperature in 384-well microtiter plates with an incubation volume of 20.2 μL. Solutions of test compounds were prepared in DMSO and serially diluted with DMSO to yield 8 μL of each of 10 solutions differing by 3-fold in concentration, at 32 serial dilutions per plate. 100% inhibition is determined using a known PDE10 inhibitor, which can be any compound that is present at 5,000 times its Ki value in the assay described as follows, such as papaverine (see Siuciak, et al. Neuropharmacology (2006) 51:386-396; Becker, et al. Behav Brain Res (2008) 186(2):155-60; Threlfell, et al., J Pharmacol Exp Ther (2009) 328(3):785-795), 2-{4-[pyridin-4-yl-1-(2,2,2-trifluoroethyl)-1H-pyrazol-3-yl]phenoxymethyl}quinoline succinic acid or 2-[4-(1-methyl-4-pyridin-4-yl-1H-pyrazol-3-yl)-phenoxymethyl]quinoline succinic acid (see Schmidt, et al. J Pharmacol Exp Ther (2008) 325:681-690; Threlfell, et al., J Pharmacol Exp Ther (2009) 328(3): 785-795). 0% of inhibition is determined by using DMSO (1% final concentrations). A Labcyte Echo 555 (Labcyte, Sunnyvale, Calif.) is used to dispense […] from each well of the titration plate to the 384 well assay plate. A solution of enzyme (1/7000 dilution from aliquots; sufficient to produce 20% substrate conversion) and a separate solution of FAM-labeled cAMP PDE from Molecular Devices (product # R7506), at a final concentration of 50 nM are made in the assay buffer (10 mM Tris HCl, pH 7.2, 10 mM MgCl2, 0.05% NaN3 0.01% Tween-20, and 1 mM DTT). The enzyme is added to the assay plates by the addition of 10 μL of enzyme solution to each well, shaken to mix and incubated at room temperature for 60 minutes. The substrate is then added to the assay plates by the addition of 10 μL of substrate solution to each well, shaken to mix, and incubated at room temperature for 60 minutes. […]

Sequence of human PDE10A2 (Q9Y233 267-1055): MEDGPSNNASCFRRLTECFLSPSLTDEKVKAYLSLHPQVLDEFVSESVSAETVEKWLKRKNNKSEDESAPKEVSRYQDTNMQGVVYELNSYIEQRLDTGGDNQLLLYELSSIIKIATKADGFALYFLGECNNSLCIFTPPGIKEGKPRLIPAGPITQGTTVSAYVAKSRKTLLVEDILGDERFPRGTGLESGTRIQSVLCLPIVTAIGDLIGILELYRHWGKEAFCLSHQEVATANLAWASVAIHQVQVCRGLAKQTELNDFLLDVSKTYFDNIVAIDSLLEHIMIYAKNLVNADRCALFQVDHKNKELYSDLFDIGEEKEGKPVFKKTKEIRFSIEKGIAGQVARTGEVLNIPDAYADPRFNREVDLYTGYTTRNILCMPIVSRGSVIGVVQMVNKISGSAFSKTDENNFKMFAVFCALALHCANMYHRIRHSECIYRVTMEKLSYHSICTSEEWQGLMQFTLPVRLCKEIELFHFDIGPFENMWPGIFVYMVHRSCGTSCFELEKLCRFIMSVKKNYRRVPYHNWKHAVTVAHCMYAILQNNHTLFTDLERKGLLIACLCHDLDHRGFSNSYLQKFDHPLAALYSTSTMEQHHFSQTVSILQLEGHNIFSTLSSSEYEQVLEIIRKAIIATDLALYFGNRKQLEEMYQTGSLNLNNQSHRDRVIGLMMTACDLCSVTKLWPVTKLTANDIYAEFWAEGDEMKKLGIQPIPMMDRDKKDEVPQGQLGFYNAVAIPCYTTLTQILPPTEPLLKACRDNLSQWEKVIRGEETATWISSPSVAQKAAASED

In the case of `COCc1nc(C)nn1-c1cc(N2CC(c3nc4ccccc4n3C)C2)nc(C2CC2)n1` [Example 65, 2-(1-(2-cyclopropyl-6-(5-(methoxymethyl)-3-methyl-1H-1,2,4-triazol-1-yl)pyrimidin-4-yl)azetidin-3-yl)-1-methyl-1H-benzo[d]imidazole], the pKi is 8.60.
Take `Cc1nc(C)n(-c2cc(N3CC(c4nc5ccccc5n4C)C3)nc(-n3ccnc3C)n2)n1` [Example 77, 2-(1-(6-(3,5-dimethyl-1H-1,2,4-triazol-1-yl)-2-(2-methyl-1H-imidazol-1-yl)pyrimidin-4-yl)azetidin-3-yl)-1-methyl-1H-benzo[d]imidazole]: the pKi is 9.59.
The value for `Cc1nc(N2CC(c3nc4ccccc4n3C)C2)cc(-n2nc(C)nc2-c2ccccc2F)n1` [Example 51, 2-(1-(6-(5-(2-fluorophenyl)-3-methyl-1H-1,2,4-triazol-1-yl)-2-methylpyrimidin-4-yl)azetidin-3-yl)-1-methyl-1H-benzo[d]imidazole] was 8.92; that for `Cc1nc(-c2ccccc2)cc(N2CC(c3nc4ccccc4n3C)C2)n1` [Example 88, 1-methyl-2-(1-(2-methyl-6-phenylpyrimidin-4-yl)azetidin-3-yl)-1H-benzo[d]imidazole] was 7.20; that for `Cc1nc(-c2cccnn2)cc(N2CC(c3nc4ccccc4n3C)C2)n1` [Example 106, 1-methyl-2-{1-[2-methyl-6-(pyridazin-3-yl)pyrimidin-4-yl]azetidin-3-yl}-1H-benzimidazole] was 7.96.
As to `COc1ncccc1-c1cc(N2CC(c3nc4ccccc4n3C)C2)nc(C)n1` [Example 82, 2-(1-(6-(2-methoxypyridin-3-yl)-2-methylpyrimidin-4-yl)azetidin-3-yl)-1-methyl-1H-benzo[d]imidazole], the negative-log Ki (pKi) was 7.57.
As for `Cc1nc(N2CC(c3nc4cccc(F)c4[nH]3)C2)cc(-n2nc(C)nc2C)n1` [Example 108, 2-(1-(6-(3,5-dimethyl-1H-1,2,4-triazol-1-yl)-2-methylpyrimidin-4-yl)azetidin-3-yl)-7-fluoro-1H-benzo[d]imidazole], the pKi was 7.72.
Turning to `CCOC(=O)Cc1nc(C)nn1-c1cc(N2CC(c3nc4ccccc4n3C)C2)nc(C)n1` [Example 44, ethyl 2-(3-methyl-1-(2-methyl-6-(3-(1-methyl-1 benzo[d]imidazol-2-yl)azetidin-1-yl)pyrimidin-4-yl)-1H-1,2,4-triazol-5-yl)acetate], the pKi was 8.59.
For the compound `Cc1nc(N2CC(c3nc4ccccc4n3CCO)C2)cc(-n2nc(C)nc2C)n1` [Example 117, 2-(2-(1-(6-(3,5-dimethyl-1H-1,2,4-triazol-1-yl)-2-methylpyrimidin-4-yl)azetidin-3-yl)-1H-benzo[d]imidazol-1-yl)ethanol], the pKi was 8.18.
With `Cc1nc(-c2ccccn2)cc(N2CC(c3nc4ccccc4n3C)C2)n1` [Example 95, 1-methyl-2-(1-(2-methyl-6-(pyridin-2-yl)pyrimidin-4-yl)azetidin-3-yl)-1H-benzo[d]imidazole], the pKi is 8.74.
Regarding `Cc1nc(C)n(-c2cc(N3CC(c4nc5ccccc5n4C)C3)nc(-n3cccn3)n2)n1` [Example 76, 2-(1-(6-(3,5-dimethyl-1H-1,2,4-triazol-1-yl)-2-(1H-pyrazol-1-yl)pyrimidin-4-yl)azetidin-3-yl)-1-methyl-1H-benzo[d]imidazole], the pKi was 9.21.
The value for `Cc1nc(C2CC2)n(-c2cc(N3CC(c4nc5ccccc5n4C)C3)nc(C(F)(F)F)n2)n1` [Example 68, 2-(1-(6-(5-cyclopropyl-3-methyl-1H-1,2,4-triazol-1-yl)-2-(trifluoromethyl)pyrimidin-4-yl)azetidin-3-yl)-1-methyl-1H-benzo[d]imidazole] was 8.85.
Regarding `Cc1nc(-c2ccccc2O)cc(N2CC(c3nc4ccccc4n3C)C2)n1` [Example 92, 2-(2-methyl-6-(3-(1-methyl-1H-benzo[d]imidazol-2-yl)azetidin-1-yl)pyrimidin-4-yl)phenol], the pKi is 7.52.
The value for `CCCn1c(C2CN(c3cc(-n4nc(C)nc4C)nc(C)n3)C2)nc2ccccc21` [Example 118, 2-(1-(6-(3,5-dimethyl-1H-1,2,4-triazol-1-yl)-2-methylpyrimidin-4-yl)azetidin-3-yl)-1-propyl-1H-benzo[d]imidazole] was 7.89.
Consider `CCOCCn1c(C2CN(c3cc(-n4nc(C)nc4C)nc(C)n3)C2)nc2ccccc21` [Example 120, 2-(1-(6-(3,5-dimethyl-1H-1,2,4-triazol-1-yl)-2-methylpyrimidin-4-yl)azetidin-3-yl)-1-(2-ethoxyethyl)-1H-benzo[d]imidazole], for which the pKi is 8.07.
In the case of `COc1nc(-c2ccc(C)cn2)cc(N2CC(c3nc4ccccc4n3C)C2)n1` [Example 96, 2-(1-(2-methoxy-6-(5-methylpyridin-2-yl)pyrimidin-4-yl)azetidin-3-yl)-1-methyl-1H-benzo[d]imidazole], the pKi is 8.89.
The value for `Cc1nc(C)n(-c2cc(N3CC(c4nc5ccccc5n4C)C3)nc(OCc3ccnn3C)n2)n1` [Example 73, 2-(1-(6-(3,5-dimethyl-1H-1,2,4-triazol-1-yl)-2-((1-methyl-1H-pyrazol-5-yl)methoxy)pyrimidin-4-yl)azetidin-3-yl)-1-methyl-1H-benzo[d]imidazole] was 9.89; that for `Cc1nc(N2CC(c3nc4ccccc4n3C)C2)cc(-n2cc(C#N)cn2)n1` [Example 17, 1-(2-methyl-6-(3-(1-methyl-1H-benzo[d]imidazol-2-yl)azetidin-1-yl)pyrimidin-4-yl)-1H-pyrazole-4-carbonitrile] was 8.38.
In the case of `Cc1nc(N2CC(c3nc4ccccc4n3C)C2)cc(-n2nc(C)nc2C2CC2)n1` [Example 36, 2-(1-(6-(5-cyclopropyl-3-methyl-1H-1,2,4-triazol-1-yl)-2-methylpyrimidin-4-yl)azetidin-3-yl)-1-methyl-1H-benzo[d]imidazole], the pKi was 8.35.
The value for `Cc1nc(-c2ccc(C#N)cn2)cc(N2CC(c3nc4ccccc4n3C)C2)n1` [Example 103, 6-(2-methyl-6-(3-(1-methyl-1H-benzo[d]imidazol-2-yl)azetidin-1-yl)pyrimidin-4-yl)nicotinonitrile] was 8.62.
Take `Cc1cnn(-c2cc(N3CC(c4nc5ccccc5n4C)C3)nc(C3CC3)n2)c1` [Example 6, 2-(1-(2-cyclopropyl-6-(4-methyl-1H-pyrazol-1-yl)pyrimidin-4-yl)azetidin-3-yl)-1-methyl-1H-benzo[d]imidazole]: the pKi was 9.28.
On to `Cc1nc(C)n(-c2cc(N3CC(c4nc5ccccc5n4C)C3)nc(C#N)n2)n1` [Example 79, 4-(3,5-dimethyl-1H-1,2,4-triazol-1-yl)-6-[3-(1-methyl-1H-benzimidazol-2-yl)azetidin-1-yl]pyrimidine-2-carbonitrile], for which the negative logarithm of the Ki (pKi) is 9.55.
On to `Cc1nc(N2CC(c3nc4ccccc4n3C)C2)cc(-n2nc(C)nc2COc2ccccc2)n1` [Example 46, 1-methyl-2-(1-(2-methyl-6-(3-methyl-5-(phenoxymethyl)-1H-1,2,4-triazol-1-yl)pyrimidin-4-yl)azetidin-3-yl)-1H-benzo[d]imidazole], for which the pKi was 8.92.
The value for `Cc1nc(C)n(-c2cc(N3CC(c4nc5ccccc5n4C)C3)nc(OCc3ccno3)n2)n1` [Example 71, 5-(((4-(3,5-dimethyl-1H-1,2,4-triazol-1-yl)-6-(3-(1-methyl-1H-benzo[d]imidazol-2-yl)azetidin-1-yl)pyrimidin-2-yl)oxy)methyl)isoxazole] was 9.40.
